Results taken from patent publication EP0414952A1, “Dithiolane derivatives” (NIHON NOHYAKU CO., LTD., priority 1989, dated 1991).

Tested on: carbon tetrachloride-induced hepatic disorders
Test: Effect of inhibiting carbon tetrachloride-induced hepatic disorders
Format: in vivo
Conditions: male mice of dd strain, mean of 5 mice; for Hepatic Disorder index: 30 mg/kg orally in olive oil 6 hours before carbon tetrachloride 0.05 ml/kg orally, sacrificed 24 hours after, visual score 0 (healthy liver) to 6 (heavy disorder); for p-GPT(K.U.): plasma glutamic-pyruvic transaminase activity, Reitman-Frankel method, 30 mg/kg orally 6 hours before carbon tetrachloride 0.05 ml/kg orally, 24 hours after, values above 2,100 counted as 2,100
Method: Effect of inhibiting carbon tetrachloride-induced hepatic disorders A test compound was dissolved or suspended in olive oil and the resulting solution or suspension was orally administered to male mice (6 week age) of dd strain in a dose of 30 mg/kg. Six hours after the administration, carbon tetrachloride was orally administered to the mice in a dose of 0.05 ml/kg. The mice were sacrificed 24 hours after the administration of carbon tetrachloride. Degree of hepatic disorders was visually examined. On the other hand, blood was collected when they were sacrificed and plasma was obtained by centrifugation. Plasma glutamic-pyruvic transaminase (GPT) activity was determined according to the Reitman-Frankel method and the activity was expressed by Karmen Unit (K.U.). The hepatic disorder index is evaluated as below. [table] Five (5) mice were used in each group and the results are shown by a mean value. Further with respect to GPT activity, no further measurement was conducted with the case showing more than 2,100 units but for brevity, it was calculated as 2,100 units.

| Compound | Hepatic Disorder index | p-GPT(K.U.) |
| --- | --- | --- |
| CN(C)C1SC(=C2C(=O)CCCC2=O)SC1N(C)C (centres unmarked) [Compound No. 1, 2-((4,5-bis(dimethylamino)-1,3-dithiolan)-2-ylidene)-1,3-dioxocyclohexane] | 0.6 | 17 K.U. |
| O=C1CCCC(=O)C1=C1SC(N2CCOCC2)C(N2CCOCC2)S1 (centres unmarked) [Compound No. 2] | 0.5 | 12 K.U. |
| CN(C)C1SC(=C2C(=O)CC(C)(C)CC2=O)SC1N(C)C (centres unmarked) [Compound No. 3] | 1.6 | 49 K.U. |
| CCC(=O)OC1SC(=C2C(=O)CCCC2=O)SC1N(C)C (centres unmarked) [Compound No. 7] | 0 | 15 K.U. |
| CCOC(=O)OC1SC(=C2C(=O)CCCC2=O)SC1N(C)C (centres unmarked) [Compound No. 8] | 0 | 18 K.U. |
| CN(C)C1SC(=C2C(=O)CC(C)(C)CC2=O)SC1O (centres unmarked) [Compound No. 13] | 0.4 | 157 K.U. |
| CCN1CCN(C2SC(=C3C(=O)CC(C)(C)CC3=O)SC2OC(C)=O)CC1 (centres unmarked) [Compound No. 19] | 1.0 | 297 K.U. |
| CC(=O)OC1SC(=C2C(=O)CC(c3ccc(C)cc3)CC2=O)SC1N(C)C (centres unmarked) [Compound No. 30] | 0.5 | 229 K.U. |
| CC(=O)OC1SC(=C2C(=O)CC(c3ccco3)CC2=O)SC1N1CCN(C)CC1 (centres unmarked) [Compound No. 46] | 0.2 | 205 K.U. |
| Cc1ccc(C2CC(=O)C(=C3SC(O)C(N(C)C)S3)C(=O)C2)o1 (centres unmarked) [Compound No. 47] | 1.6 | 430 K.U. |
